Test results taken from patent publication US8961959B2, “Glucosylceramide synthase inhibitors and therapeutic methods using the same” (The Regents of the University of Michigan, priority 2011, dated 2015).

Experiments:
[1] = drug distribution studies; cited from earlier work
Sandhoff (Hexb−/−) mice = assay: Juvenile Sandhoff (Hexb−/−) mice treated with compound 3h; type: in vivo, mouse; details: for Neutral Lipids GA2: p-15 Sandhoff mice; for Total Siatic Acid: Hexb −/− p-15, 60 mg/kg/day i.p. p-9 to p-15, resorcinol assay
Method: The SV/129 Hexb−/− mice were obtained from the NIH. The mice were derived by the disruption of the murine Hexb gene and transferring this gene into the mouse genome via homologous recombination and embryonic stem cell technology as previously described (38). The genotypes of mice were determined by PCR as previously described. Mice were propagated and housed in plastic cages with filter tops containing Sani-Chip bedding (P.J. Murphy Forest Products Corp.; Montville, N.J.). Food and water were provided ad libitum. Nursing females were provided with cotton nesting pads for the duration of the experiment.
The solution was dried under nitrogen, resuspended in 3.6 ml distilled H2O, then dissolved at 42° C. in a shaking water bath. The solution was neutralized by adding 400 μl of 10× phosphate buffer saline (PBS), and was sterilized following passage through an Acrodisc 0.2 μm syringe filter (Sigma, St. Louis, Mo.). […] The mice were weighed daily and received intraperitoneal (i.p.) injections equivalent to 60 mg/kg from postnatal day 9 (p-9) to postnatal day 15 (p-15). Control mice received i.p. injections of PBS. Injections were performed using a Hamilton syringe (26 gauge, point style 2, 0.5 inch needle) (Hamilton, Reno, Nev.), and volumes ranged from 50 ul to 100 μl/mouse. The mice were sacrificed 4 hrs after the final injection on p-15. Cerebrum, cerebellum, and liver were dissected and frozen on dry ice to determine wet weight. The tissues then were homogenized in 3.0 ml distilled H2O, and 150 μl of each homogenate was set aside for analysis of protein and lysosomal enzyme activities. The remaining homogenate was frozen at −80° C., lyophilized, then weighed before lipid extraction. […]
Lipid extraction of lyophilized tissue was performed overnight in 5 ml CHCl3:CH3OH 1:1 (v/v). Samples were spun down at 2500 rpm for 20 min, and the supernatant was collected. Pellets were washed in 2 ml CHCl3:CH3OH 1:1 (v/v), spun down again, and the total 7 ml of supernatant was brought up to a final volume of 19.6 ml at a ratio of 30:60:8 CHCl3:CH3OH:dH2O (v/v/v).
Neutral lipids and cholesterol were separated from acidic lipids and gangliosides by ion exchange chromatography as we described (32, 28, 24). The total lipid extract, suspended in CHCl3:CH3OH:dH2O, 30:60:8 by volume (solvent A), was applied to a DEAE Sephadex column (1.2 mL bed volume) that had been equilibrated prior with solvent A (28). The column was washed twice with 20 mL solvent A and the entire neutral lipid fraction, consisting of the initial eluent plus washes, was collected. This fraction contained cholesterol, phosphatidylcholine, phosphatidylethanolamine and plasmalogens, sphingomyelin, and neutral GSLs to include cerebrosides and asialo-GM2 (GA2). Next, acidic lipids were eluted from the column with 35 mL CHCl3:CH3OH:0.8 M Na acetate, 30:60:8 by volume. Gangliosides were separated from acidic phospholipids by Folch partitioning, base treated, and desalted as previously described (32, 28). Neutral lipids were dried by rotary evaporation and resuspended in 10 mL CHCl3:CH3OH (2:1; v/v). A 4 mL aliquot was evaporated under nitrogen, base treated with 1 N NaOH, and Folch partitioned. The Folch lower phase containing GA2 was evaporated under nitrogen and resuspended in 4 mL CHCl3:CH3OH (2:1; v/v).
Total ganglioside content was quantified before and after desalting using the resorcinol assay as previously described (28). Sialic acid values were fit to a standard curve using n-acetylneuraminic acid as a standard.
All lipids were analyzed qualitatively by high-performance thin-layer chromatography (HPTLC) according to previously described methods (28, 24, 25). Lipids were spotted on 10 cm×20 cm Silica gel 60 HPTLC plates (E. Merck, Darmstadt, Germany) using a Camag Linomat III auto-TLC spotter (Camag Scientific, Inc., Wilmington, N.C.). […]

[2] = Hexb −/− mice p-15, 60 mg/kg/day i.p. p-9 to p-15, mean ± SEM
[3] = cerebellum, Hexb −/− p-15, 60 mg/kg/day
[4] = cerebrum, Hexb −/− p-15, 60 mg/kg/day
[5] = liver, Hexb −/− p-15, 60 mg/kg/day

## CCCCCCCC(=O)N[C@H](CN1CCCC1)[C@H](O)c1ccc2c(c1)OCCO2 [Compound 3a, N-((1R,2R)-1-(2,3-dihydrobenzo-[b][1,4]dioxin-6-yl)-1-hydroxy-3-(pyrrolidin-1-yl)propan-2-yl)octanamide, reference compound]
[1]
  transport across the blood brain barrier: not transported across the blood brain barrier

## O=C(CC1Cc2ccccc2C1)N[C@H](CN1CCCC1)[C@H](O)c1ccc2c(c1)OCCO2 [Compound 3h, 2-(2,3-dihydro-1H-inden-2-yl)-N-((1R,2R)-1-(2,3-dihydrobenzo[b][1,4]dioxin-6-yl)-1-hydroxy-3-(pyrrolidin-1-yl)propan-2-yl)acetamide]
Sandhoff (Hexb−/−) mice; 60 mg/kg/day p-9 to p-15
  adverse effects on body weight over the treatment period: no adverse effects
Sandhoff (Hexb−/−) mice; Cerebellum
  Neutral Lipids GA2: 0.55 ± 0.01 mg/100 mg dry weight
Sandhoff (Hexb−/−) mice; Cerebrum
  Neutral Lipids GA2: 0.51 ± 0.01 mg/100 mg dry weight
Sandhoff (Hexb−/−) mice; Hexb −/− mice p-15, 60 mg/kg/day i.p. p-9 to p-15 (oxalate), mean ± SEM
  Body Weight: 9.0 ± 0.5 g
Sandhoff (Hexb−/−) mice; [2]
  Water Content Cerebellum: 83.88 ± 0.01%
  Water Content Cerebrum: 84.45 ± 0.01%
  Wet Weight Cerebellum: 87.7 ± 7.7 mg
  Wet Weight Cerebrum: 271.0 ± 2.3 mg
Sandhoff (Hexb−/−) mice; Liver
  Neutral Lipids GA2: 1.10 ± 0.05 mg/100 mg dry weight
Sandhoff (Hexb−/−) mice; cerebellum of Hexb −/− mice
  reduction of GM2 content: 53%
Sandhoff (Hexb−/−) mice; cerebellum, 60 mg/kg/day p-9 to p-15
  total sialic content lower than in control Hexb −/− mice: 14%
Sandhoff (Hexb−/−) mice; [3]
  G1a Concentration: 76.6 ± 3.7 micrograms of sialic acid per 100 mg dry weight
  G1a Percent: 24.1 ± 0.3%
  GD1b Concentration: 42.1 ± 2.0 micrograms of sialic acid per 100 mg dry weight
  GD1b Percent: 24.1 ± 0.3%
  GD3 Concentration: 9.8 ± 1.2 micrograms of sialic acid per 100 mg dry weight
  GD3 Percent: 4.3 ± 0.2%
  GM1 Concentration: 17.4 ± 1.4 micrograms of sialic acid per 100 mg dry weight
  GM1 Percent: 5.5 ± 0.4%
  GM2 Concentration: 9.8 ± 1.2 micrograms of sialic acid per 100 mg dry weight
  GM2 Percent: 3.1 ± 0.1%
  GQ1b Concentration: 41.3 ± 3.8 micrograms of sialic acid per 100 mg dry weight
  GQ1b Percent: 12.9 ± 0.1%
  GT1a/LD1 Concentration: 22.9 ± 1.0 micrograms of sialic acid per 100 mg dry weight
  GT1a/LD1 Percent: 7.2 ± 0.1%
  GT1b Concentration: 94.4 ± 3.9 micrograms of sialic acid per 100 mg dry weight
  GT1b Percent: 29.7 ± 0.8%
Sandhoff (Hexb−/−) mice; cerebellum, mean ± SEM
  Total Siatic Acid: 318 ± 15
Sandhoff (Hexb−/−) mice; cerebrum of Hexb −/− mice
  reduction of GM2 content: 52%
Sandhoff (Hexb−/−) mice; cerebrum, 60 mg/kg/day p-9 to p-15
  total sialic content lower than in control Hexb −/− mice: 11%
Sandhoff (Hexb−/−) mice; [4]
  G1a Concentration: 187.4 ± 5.2 micrograms of sialic acid per 100 mg dry weight
  G1a Percent: 43.4 ± 0.3%
  GD1b Concentration: 31.7 ± 0.5 micrograms of sialic acid per 100 mg dry weight
  GD1b Percent: 7.3 ± 0.1%
  GM1 Concentration: 26.4 ± 1.6 micrograms of sialic acid per 100 mg dry weight
  GM1 Percent: 6.1 ± 0.2%
  GM2 Concentration: 87.7 ± 7.7 micrograms of sialic acid per 100 mg dry weight
  GM2 Percent: 2.8 ± 0.1%
  GQ1b Concentration: 33.3 ± 0.7 micrograms of sialic acid per 100 mg dry weight
  GQ1b Percent: 7.7 ± 0.1%
  GT1a/LD1 Concentration: 20.8 ± 0.7 micrograms of sialic acid per 100 mg dry weight
  GT1a/LD1 Percent: 4.8 ± 0.3%
  GT1b Concentration: 119.8 ± 3.3 micrograms of sialic acid per 100 mg dry weight
  GT1b Percent: 27.8 ± 0.1%
Sandhoff (Hexb−/−) mice; cerebrum, mean ± SEM
  Total Siatic Acid: 432 ± 11
Sandhoff (Hexb−/−) mice; in words
  body weight versus control Hexb −/− mice: slightly higher
Sandhoff (Hexb−/−) mice; liver, versus PBS-treated Hexb −/− controls
  reduction of NGNA-GM2 content: 45%
Sandhoff (Hexb−/−) mice; liver, 60 mg/kg/day p-9 to p-15
  total sialic content lower than in control Hexb −/− mice: 38%
Sandhoff (Hexb−/−) mice; [5]
  G1a Concentration: 12.2 ± 0.3 micrograms of sialic acid per 100 mg dry weight
  G1a Percent: 17.6 ± 1.1%
  GM1 Concentration: 15.4 ± 2.1 micrograms of sialic acid per 100 mg dry weight
  GM1 Percent: 21.9 ± 1.5%
  GM2 Concentration: 42.1 ± 2.6 micrograms of sialic acid per 100 mg dry weight
  GM2 Percent: 60.5 ± 1.3%
Sandhoff (Hexb−/−) mice; liver, mean ± SEM
  Total Siatic Acid: 70 ± 5
Sandhoff (Hexb−/−) mice; p=0.06
  reduction of GA2 in Hexb −/− liver: not significant
